# Results taken from patent US8975398B2, “NAMPT inhibitors” (AbbVie Inc., priority 2012, dated 2015).
# Tests used:
# NAMPT = NAMPT (Homo sapiens, UniProt P43490); assay: Time-Resolved Fluorescence Resonance Energy Transfer (TR-FRET) Binding Assay of NAMPT with PRPP; settings: 2 nM NAMPT, 2 nM probe, 200 uM PRPP and 2.5 mM ATP, equilibrated 16 hours
# Summary of the method: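 Binding measured by TR-FRET after a 16-hour equilibration meant to permit enzymatic compound modification. Substrates present at 200 uM PRPP and 2.5 mM ATP, with 2 nM enzyme, 2 nM probe, 1 nM Tb-anti-His antibody and 2% DMSO final.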
# [1] = molecular target: NAMPT (human, recombinant, C-terminally His-tagged) (Homo sapiens, UniProt P43490); assay: Time-Resolved Fluorescence Resonance Energy Transfer (TR-FRET) Binding Assay of NAMPT; settings: 6.8 nM NAMPT, 200 nM probe, equilibrated 3 hours, absence of substrates
# Summary of the method: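 Probe displacement measured by TR-FRET (Ex 337 nm; 520/495 nm ratio) after 3 h room-temperature equilibration of compound with 6.8 nM His-tagged human NAMPT, 1 nM Tb-anti-His antibody and 200 nM Oregon Green 488 nicotinamide-site probe, pH 7.5 HEPES buffer, 2% DMSO. Control-normalized data fit four-parameter logistic for IC50.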
# Sequence of NAMPT (P43490 whole entry): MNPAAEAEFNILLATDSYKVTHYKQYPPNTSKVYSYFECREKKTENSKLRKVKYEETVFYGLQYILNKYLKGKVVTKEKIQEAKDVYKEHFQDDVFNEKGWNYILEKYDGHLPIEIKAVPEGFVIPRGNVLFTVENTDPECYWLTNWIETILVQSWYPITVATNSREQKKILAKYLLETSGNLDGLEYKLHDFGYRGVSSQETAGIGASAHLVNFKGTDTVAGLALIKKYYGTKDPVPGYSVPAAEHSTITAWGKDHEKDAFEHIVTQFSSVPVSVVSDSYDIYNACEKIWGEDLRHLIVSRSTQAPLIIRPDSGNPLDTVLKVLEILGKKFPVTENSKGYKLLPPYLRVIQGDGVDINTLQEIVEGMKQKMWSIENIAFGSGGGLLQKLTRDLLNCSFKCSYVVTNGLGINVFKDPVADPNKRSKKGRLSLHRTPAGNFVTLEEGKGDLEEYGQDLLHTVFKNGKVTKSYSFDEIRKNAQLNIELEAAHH
# Sequence of NAMPT (human, recombinant, C-terminally His-tagged) (P43490 whole entry): as above
SMILES,IC50 (NAMPT) [nM],IC50 [1] [nM]
"O=C(Nc1ccc(OC2CCN(C(=O)c3ccc(OC(F)(F)F)cc3)CC2)cc1)C1CN(c2cccnn2)C1 [Example 235, 1-(pyridazin-3-yl)-N-[4-({1-[4-(trifluoromethoxy)benzoyl]piperidin-4-yl}oxy)phenyl]azetidine-3-carboxamide]",1.41,283
"Cc1ncccc1N1CC(C(=O)Nc2ccc(C3CCN(C(=O)c4ccccc4F)CC3)cc2)C1 [Example 150, N-{4-[1-(2-fluorobenzoyl)piperidin-4-yl]phenyl}-1-(2-methylpyridin-3-yl)azetidine-3-carboxamide]",43.8,6.53
"Cc1cccc(C(=O)N2CCC(c3ccc(NC(=O)C4CN(c5cccnn5)C4)cc3)CC2)c1 [Example 341, N-{4-[1-(3-methylbenzoyl)piperidin-4-yl]phenyl}-1-(pyridazin-3-yl)azetidine-3-carboxamide]",0.727,35.1
"CC(C)Cn1cc(-c2ccc(C(=O)NC3CN(c4cccnn4)C3)s2)cn1 [Example 315, 5-[1-(2-methylpropyl)-1H-pyrazol-4-yl]-N-[1-(pyridazin-3-yl)azetidin-3-yl]thiophene-2-carboxamide]",0.641,469
"CC(C)CCN1CCC(c2ccc(NC(=O)C3CN(c4cccnc4)C3)cc2)CC1 [Example 93, N-{4-[1-(3-methylbutyl)piperidin-4-yl]phenyl}-1-(pyridin-3-yl)azetidine-3-carboxamide]",1.25,1220
"Cc1ccc(C(=O)N2CCC(Oc3ccc(NC(=O)C4CN(c5cccnn5)C4)cc3)CC2)s1 [Example 219, N-[4-({1-[(5-methylthiophen-2-yl)carbonyl]piperidin-4-yl}oxy)phenyl]-1-(pyridazin-3-yl)azetidine-3-carboxamide]",0.48,105
"O=C(Nc1ccc(OC2CCN(C(=O)c3ccccc3Cl)CC2)cc1)C1CN(c2cccnn2)C1 [Example 211, N-(4-{[1-(2-chlorobenzoyl)piperidin-4-yl]oxy}phenyl)-1-(pyridazin-3-yl)azetidine-3-carboxamide]",0.801,31.9
"O=C(Nc1ccc(OC2CCN(C(=O)c3ccccc3F)CC2)cc1)C1CN(c2ccnnc2)C1 [Example 289, N-(4-{[1-(2-fluorobenzoyl)piperidin-4-yl]oxy}phenyl)-1-(pyridazin-4-yl)azetidine-3-carboxamide]",32.1,41.6
"O=C(Nc1ccc(C2CCN(C(=O)Cc3cc(F)ccc3F)CC2)cc1)C1CN(c2cccnn2)C1 [Example 373, N-(4-{1-[(2,5-difluorophenyl)acetyl]piperidin-4-yl}phenyl)-1-(pyridazin-3-yl)azetidine-3-carboxamide]",0.576,22.4
"O=C(Nc1ccc(OC2CCN(C(=O)Cc3ccc(OC(F)(F)F)cc3)CC2)cc1)C1CN(c2ccnnc2)C1 [Example 275, 1-(pyridazin-4-yl)-N-{4-[(1-{[4-(trifluoromethoxy)phenyl]acetyl}piperidin-4-yl)oxy]phenyl}azetidine-3-carboxamide]",45.1,231
"Cc1ncccc1N1CC(C(=O)Nc2ccc(C3CCN(C(=O)C(C)(C)C)CC3)cc2)C1 [Example 185, N-{4-[1-(2,2-dimethylpropanoyl)piperidin-4-yl]phenyl}-1-(2-methylpyridin-3-yl)azetidine-3-carboxamide]",44.1,81.3
"O=C(Nc1ccc(C2CCN(C(=O)c3ccccc3)CC2)cc1)[C@H]1CCN(c2cccnn2)C1 [Example 311, (3S)—N-[4-(1-benzoylpiperidin-4-yl)phenyl]-1-(pyridazin-3-yl)pyrrolidine-3-carboxamide]",3.96,30.2
"O=C(Nc1ccc(OC2CCN(C(=O)C3CCCC3)CC2)cc1)C1CN(c2cccnc2)C1 [Example 52, N-(4-{[1-(cyclopentylcarbonyl)piperidin-4-yl]oxy}phenyl)-1-(pyridin-3-yl)azetidine-3-carboxamide]",0.696,51
"CC(C)(C)CC(=O)N1CCC(c2ccc(NC(=O)C3CN(c4ccnnc4)C3)cc2)CC1 [Example 140, N-{4-[1-(3,3-dimethylbutanoyl)piperidin-4-yl]phenyl}-1-(pyridazin-4-yl)azetidine-3-carboxamide]",8.87,11
"CC(C)(O)C(=O)N1CCC(Oc2ccc(NC(=O)[C@H]3CCN(c4cccnc4)C3)cc2)CC1 [Example 17, (3S)-N-(4-{[1-(2-hydroxy-2-methylpropanoyl)piperidin-4-yl]oxy}phenyl)-1-(pyridin-3-yl)pyrrolidine-3-carboxamide]",2.36,3510
"O=C(Nc1ccc(OC2CCN(C(=O)Cc3cccc(C(F)(F)F)c3)CC2)cc1)C1CN(c2cccnn2)C1 [Example 240, 1-(pyridazin-3-yl)-N-{4-[(1-{[3-(trifluoromethyl)phenyl]acetyl}piperidin-4-yl)oxy]phenyl}azetidine-3-carboxamide]",0.925,192
"CC(C)CCN1CCC(Oc2ccc(NC(=O)C3CN(c4cccnc4)C3)cc2)CC1 [Example 77, N-(4-{[1-(3-methylbutyl)piperidin-4-yl]oxy}phenyl)-1-(pyridin-3-yl)azetidine-3-carboxamide]",0.832,3010
"CCOCC(=O)N1CCC(c2ccc(NC(=O)C3CN(c4cccnc4)C3)cc2)CC1 [Example 131, N-{4-[1-(ethoxyacetyl)piperidin-4-yl]phenyl}-1-(pyridin-3-yl)azetidine-3-carboxamide]",0.474,69.9
"O=C(Nc1ccc(OC2CN(C(=O)C3CCC(F)(F)CC3)C2)cc1)C1CN(c2ccnnc2)C1 [Example 202, N-[4-({1-[(4,4-difluorocyclohexyl)carbonyl]azetidin-3-yl}oxy)phenyl]-1-(pyridazin-4-yl)azetidine-3-carboxamide]",89.5,117
"CC(C)CCC(=O)N1CCC(Oc2ccc(NC(=O)C3CN(c4cccnc4)C3)cc2)CC1 [Example 37, N-(4-{[1-(4-methylpentanoyl)piperidin-4-yl]oxy}phenyl)-1-(pyridin-3-yl)azetidine-3-carboxamide]",0.983,68.9

# More lines, now with the values ahead:
IC50 (NAMPT) [nM],IC50 [1] [nM],SMILES
104,140,"Cc1ncccc1N1CC(C(=O)Nc2ccc(C3CCN(C(=O)CC(F)(F)F)CC3)cc2)C1 [Example 182, 1-(2-methylpyridin-3-yl)-N-{4-[1-(3,3,3-trifluoropropanoyl)piperidin-4-yl]phenyl}azetidine-3-carboxamide]"
37.8,47.3,"O=C(Nc1ccc(OC2CN(C(=O)C3CCCCC3)C2)cc1)C1CN(c2ccnnc2)C1 [Example 255, N-(4-{[1-(cyclohexylcarbonyl)azetidin-3-yl]oxy}phenyl)-1-(pyridazin-4-yl)azetidine-3-carboxamide]"
0.632,265,"CCC(CC)CN1CCC(Oc2ccc(NC(=O)C3CN(c4cccnc4)C3)cc2)CC1 [Example 78, N-(4-{[1-(2-ethylbutyl)piperidin-4-yl]oxy}phenyl)-1-(pyridin-3-yl)azetidine-3-carboxamide]"
59.7,128,"Cc1ncccc1N1CC(C(=O)Nc2ccc(C3CCN(C(=O)CC4C[C@@H]5CC[C@H]4C5)CC3)cc2)C1 (stereo partly drawn) [Example 161, N-(4-{1-[(1S,4R)-bicyclo[2.2.1]hept-2-ylacetyl]piperidin-4-yl}phenyl)-1-(2-methylpyridin-3-yl)azetidine-3-carboxamide]"
16.7,79.8,"Cc1ncccc1N1CC(C(=O)Nc2ccc(C3CCN(C(=O)C(C)C)CC3)cc2)C1 [Example 29, N-{4-[1-(2-methylpropanoyl)piperidin-4-yl]phenyl}-1-(2-methylpyridin-3-yl)azetidine-3-carboxamide]"
86.9,154,"O=C(Nc1ccc(OC2CCN(C(=O)c3cc(F)cc(F)c3)CC2)cc1)C1CN(c2ccnnc2)C1 [Example 299, N-(4-{[1-(3,5-difluorobenzoyl)piperidin-4-yl]oxy}phenyl)-1-(pyridazin-4-yl)azetidine-3-carboxamide]"
28.9,61.7,"O=C(Nc1ccc(OC2CN(C(=O)c3ccoc3)C2)cc1)C1CN(c2ccnnc2)C1 [Example 209, N-(4-{[1-(furan-3-ylcarbonyl)azetidin-3-yl]oxy}phenyl)-1-(pyridazin-4-yl)azetidine-3-carboxamide]"
0.896,242,"O=C(Nc1ccc(OC2CCN(C(=O)C3CCOC3)CC2)cc1)C1CN(c2cccnn2)C1 (centres unmarked) [Example 226, 1-(pyridazin-3-yl)-N-(4-{[1-(tetrahydrofuran-3-ylcarbonyl)piperidin-4-yl]oxy}phenyl)azetidine-3-carboxamide]"
0.878,67.7,"O=C(Nc1ccc(C2CCN(C(=O)c3cccc(OC(F)(F)F)c3)CC2)cc1)C1CN(c2cccnn2)C1 [Example 356, 1-(pyridazin-3-yl)-N-(4-{1-[3-(trifluoromethoxy)benzoyl]piperidin-4-yl}phenyl)azetidine-3-carboxamide]"
0.199,2.84,"Cc1ccsc1C(=O)N1CCC(c2ccc(NC(=O)C3CN(c4cccnc4)C3)cc2)CC1 [Example 111, N-(4-{1-[(3-methylthiophen-2-yl)carbonyl]piperidin-4-yl}phenyl)-1-(pyridin-3-yl)azetidine-3-carboxamide]"
19.5,44.9,"O=C(Nc1ccc(OC2CCN(C(=O)Cc3cccc(F)c3)CC2)cc1)C1CN(c2ccnnc2)C1 [Example 288, N-[4-({1-[(3-fluorophenyl)acetyl]piperidin-4-yl}oxy)phenyl]-1-(pyridazin-4-yl)azetidine-3-carboxamide]"
